Data from patent publication US10081631B2, “2-(1H-indazol-3-yl)-1H-imidazo[4,5-C]pyridine and therapeutic uses thereof” (Samumed, LLC, priority 2014, dated 2018).

What was measured:
[1] = tested on: Wnt activity (Sp5-Luc reporter, SW480 colon carcinoma cells); test: Screening assay for Wnt activity: Sp5-Luc reporter gene assay in SW480 cells; format: cell-based; conditions: Homo sapiens, 42 h incubation, luminescence
Text: The screening assay for Wnt activity is described as follows. Reporter cell lines can be generated by stably transducing cancer cell lines (e.g., colon cancer) or primary cells (e.g., IEC-6 intestinal cells) with a lentiviral construct that includes a Wnt-responsive promoter driving expression of the firefly luciferase gene.
SW480 colon carcinoma cells were transduced with a lentiviral vector expressing luciferase with a human Sp5 promoter consisting of a sequence of eight TCF/LEF binding sites. SW480 cells stably expressing the Sp5-Luc reporter gene and a hygromycin resistance gene were selected by treatment with 150 μg/ml of hygromycin for 7 days. These stably transduced SW480 cells were expanded in cell culture and used for all further screening activities. For Sp5-Luc reporter gene assays, the cells were plated at 10,000 cells/well in 96-well plates with growth medium containing 10% fetal calf serum and incubated overnight at 37° C. and 5% CO2. Each compound was dissolved in DMSO as a 10 mM stock in standard j-vials and used to prepare compound source plates in dose-response format with 3-fold serial dilutions and a 10 mM top concentration. Compound transfer from serially diluted source plates to assay plates containing the cells was accomplished using a pintool (Multimek 96, Beckman equipped with V&P Scientific FP1S50H pins) based liquid handling protocol. This protocol used a slotted pin to transfer 50 nl of compound from a source plate well to an assay plate well containing 50 μl of cells in growth medium. […] Control wells received 50 nl of DMSO treatment for normalization and calculating IC50 values. The treated cells were incubated at 37° C. and 5% CO2 for an additional forty-two hours. Following incubation, the growth medium was removed and 50 μl of BrightGlo luminescence reagent (Promega) was added to each well of the 96-well assay plates. The plates were placed on an orbital shaker for 5 min and then luminescence was quantified on the Victor3 (Perkin Elmer) plate reader. Readings were normalized to DMSO only treated cells, and normalized activities were utilized for IC50 calculations using the dose-response log (inhibitor) vs. response-variable slope (four parameters) nonlinear regression feature available in GraphPad Prism 5.0 or 6.0.

[2] = tested on: primary human fibroblasts derived from IPF patients (LL29 cells); test: Inhibition of fibrosis: TGF-β1-treated primary human fibroblasts from IPF patients (LL29), αSMA staining; format: cell-based; conditions: Fibroblast, 96 h, TGF-β1 20 ng/mL, 4 days, % αSMA-positive cells
Text: The above synthesized compounds were screened using primary human fibroblasts (derived from IPF patients) treated with TGF-β1 to determine their ability to inhibit the fibrotic process.
Primary human fibroblasts derived from IPF patients (LL29 cells) [^1Xiaoqiu Liu, et. al., “Fibrotic Lung Fibroblasts Show Blunted Inhibition by cAMP Due to Deficient cAMP Response Element-Binding Protein Phosphorylation”, Journal of Pharmacology and Experimental Therapeutics (2005), 315(2), 678-687; ^2Watts, K. L., et. al., “RhoA signaling modulates cyclin D1 expression in human lung fibroblasts; implications for idiopathic pulmonary fibrosis”, Respiratory Research (2006), 7(1), 88] were obtained from American Type Culture Collection (ATCC) and expanded in F12 medium supplemented with 15% Fetal Bovine Serum and Penicillin/Streptomycin.
Each compound was dissolved in DMSO as a 10 mM stock and used to prepare compound source plates. Serial dilution (1:2, 11-point dose-response curves from 10 μM to 1.87 nM) and compound transfer was performed using the ECHO 550 (Labcyte, Sunnyvale, Calif.) into 384-well clear bottom assay plates (Greiner Bio-One) with appropriate DMSO backfill for a final DMSO concentration of 0.1%. LL29 cells were plated at 1,500 cells/well in 80 μl/well F12 medium supplemented with 1% Fetal Bovine Serum. One hour after addition of the cells, TGF-β1 (Peprotech; 20 ng/mL) was added to the plates to induce fibrosis (ref 1 and 2 above). Wells treated with TGF-β1 and containing DMSO were used as controls. Cells were incubated at 37° C. and 5% CO2 for 4 days. Following incubation for 4 days, SYTOX green nucleic acid stain (Life Technologies [Thermo Fisher Scientific]) was added to the wells at a final concentration of 1 uM and incubated at room temperature for 30 min. Cells were then fixed using 4% formaldehyde (Electron Microscopy Sciences), washed 3 times with PBS followed by blocking and permeabilization using 3% Bovine Serum Albumin (BSA; Sigma) and 0.3% Triton X-100 (Sigma) in PBS. Cells were then stained with antibody specific to α-smooth muscle actin (αSMA; Abcam) (ref 1 and 2 above) in 3% Bovine Serum Albumin (BSA; Sigma) and 0.3% Triton X-100 (Sigma) in PBS, and incubated overnight at 4° C. Cells were then washed 3 times with PBS, followed by incubation with Alexa Flor-647 conjugated secondary antibody (Life Technologies [Thermo Fisher Scientific]) and DAPI at room temperature for 1 hour. Cells were then washed 3 times with PBS and plates were sealed for imaging. αSMA staining was imaged by excitation at 630 nm and emission at 665 nm and quantified using the Compartmental Analysis program on the CellInsight CX5 (Thermo Scientific). Dead or apoptotic cells were excluded from analysis based on positive SYTOX green staining. % of total cells positive for αSMA were counted in each well and normalized to the average of 11 wells treated with TGF-β1 on the same plate using Dotmatics' Studies Software. The normalized averages (fold change over untreated) of 3 replicate wells for each compound concentration were used to create dose-responses curves and EC50 values were calculated using non-linear regression curve fit in the Dotmatics' Studies Software. The EC50 values are reported.

| IC50 [1] | Structure (SMILES) | EC50 [2] |
| --- | --- | --- |
| 12.7 nM | Cc1ccc(-c2nccc3[nH]c(-c4n[nH]c5ccc(-c6cncc(NC(=O)CC(C)(C)C)c6)cc45)nc23)s1 [Compound 354, 3,3-Dimethyl-N-(5-(3-(4-(5-methylthiophen-2-yl)-1H-imidazo[4,5-c]pyridin-2-yl)-1H-indazol-5-yl)pyridin-3-yl)butanamide] | 86 nM |
| < 1 nM | CS(=O)(=O)NCc1cc(F)cc(-c2nccc3[nH]c(-c4n[nH]c5ccc(-c6cncnc6)cc45)nc23)c1 [Compound 416, N-(3-Fluoro-5-(2-(5-(pyrimidin-5-yl)-1H-indazol-3-yl)-1H-imidazo[4,5-c]pyridin-4-yl)benzyl)methanesulfonamide] | 27 nM |
| 5 nM | CCCC(=O)Nc1cncc(-c2ccc3[nH]nc(-c4nc5c(-c6ccccc6F)nccc5[nH]4)c3c2)c1 [Compound 69, N-(5-(3-(4-(2-Fluorophenyl)-1H-imidazo[4,5-c]pyridin-2-yl)-1H-indazol-5-yl)pyridin-3-yl)butyramide] | 74 nM |
| 9 nM | CN(C)c1cncc(-c2ccc3[nH]nc(-c4nc5c(-c6cccs6)nccc5[nH]4)c3c2)c1 [Compound 293, N,N-Dimethyl-5-(3-(4-(thiophen-2-yl)-1H-imidazo[4,5-c]pyridin-2-yl)-1H-indazol-5-yl)pyridin-3-amine] | 36 nM |
| > 10000 nM | CS(=O)(=O)NCc1cc(F)cc(-c2nccc3[nH]c(-c4n[nH]c5ccc(-c6cncc(NC(=O)Cc7ccccc7)c6)cc45)nc23)c1 [Compound 400, N-(5-(3-(4-(3-Fluoro-5-(methylsulfonamidomethyl)phenyl)-1H-imidazo[4,5-c]pyridin-2-yl)-1H-indazol-5-yl)pyridin-3-yl)-2-phenylacetamide] | 9 nM |
| 5 nM | CC(C)CC(=O)Nc1cncc(-c2ccc3[nH]nc(-c4nc5c(-c6cccc(F)c6)nccc5[nH]4)c3c2)c1 [Compound 2, N-(5-(3-(4-(3-Fluorophenyl)-1H-imidazo[4,5-c]pyridin-2-yl)-1H-indazol-5-yl)pyridin-3-yl)-3-methylbutanamide] | 9 nM |
| 1190 nM | O=C(Nc1cncc(-c2ccc3[nH]nc(-c4nc5c(-c6ccncc6)nccc5[nH]4)c3c2)c1)C1CCCCC1 [Compound 126, N-(5-(3-(4-(Pyridin-4-yl)-1H-imidazo[4,5-c]pyridin-2-yl)-1H-indazol-5-yl)pyridin-3-yl)cyclohexanecarboxamide] | 9990 nM |
| 539 nM | CN(C)CCNc1cc(F)cc(-c2nccc3[nH]c(-c4n[nH]c5ccc(-c6cncc(CNCC7CCCC7)c6)cc45)nc23)c1 [Compound 440, N^1-(3-(2-(5-(5-(((Cyclopentylmethyl)amino)methyl)pyridin-3-yl)-1H-indazol-3-yl)-1H-imidazo[4,5-c]pyridin-4-yl)-5-fluorophenyl)-N^2,N^2-dimethylethane-1,2-diamine] | 9 nM |
| 20 nM | c1cncc(-c2ccc3[nH]nc(-c4nc5c(N6CCOCC6)nccc5[nH]4)c3c2)c1 [Compound 2272, 4-(2-(5-(Pyridin-3-yl)-1H-indazol-3-yl)-1H-imidazo[4,5-c]pyridin-4-yl) morpholine] |  |
| 70 nM | CN1CCN(c2nccc3[nH]c(-c4n[nH]c5ccc(-c6cn[nH]c6)cc45)nc23)CC1 [Compound 1915, 2-(5-(1H-pyrazol-4-yl)-1H-indazol-3-yl)-4-(4-methylpiperazin-1-yl)-1H-imidazo[4,5-c]pyridine] |  |
| 248 nM | CCCCC(=O)Nc1cncc(-c2ccc3[nH]nc(-c4nc5c(-c6ccccn6)nccc5[nH]4)c3c2)c1 [Compound 148, N-(5-(3-(4-(Pyridin-2-yl)-1H-imidazo[4,5-c]pyridin-2-yl)-1H-indazol-5-yl)pyridin-3-yl)pentanamide] |  |
| 3680 nM | CN(C)Cc1cncc(-c2cc3c(-c4nc5c(-c6ccsc6)nccc5[nH]4)n[nH]c3cc2F)c1 [Compound 1132, 1-(5-(6-Fluoro-3-(4-(thiophen-3-yl)-1H-imidazo[4,5-c]pyridin-2-yl)-1H-indazol-5-yl)pyridin-3-yl)-N,N-dimethylmethanamine] |  |
